One assay has as its system T24/83 cells. Kind of assay: T24/83 cell proliferation assay (CellTiter-Glo). The class given is cell-based. The conditions noted are these: Homo sapiens, 96 h, 4 days. The source says:
T24/83 cell line was purchased from the European Collection of Authenticated Cell Cultures (Salisbury, UK). Recombinant human farnesyl transferase (FTase) and geranylgeranyl transferase type-1 (GGTase) were obtained from Crelux (Martinsried, Germany). Dansyl labelled GCVLS peptide was purchased from Bachem (Torrance, CA), and Dansyl labelled GCVLL peptide was purchased from Bio Synthesis (Lewisville, TX). Farnesyl Pyrophosphate (FPP) and Geranylgeranyl pyrophosphate (GGPP) were purchased from Cayman (Ann Arbor, MI).
Mutant oncogenic HRAS was originally identified in a human bladder carcinoma cell line called T24. T24/83 is a subline of T24 established more recently that has more favorable growth characteristics for in vitro assays. Thus, T24/83 is a well-characterized mutant HRAS-dependent cell line that is an ideal model for quantifying the HRAS-dependent antitumor activity of farnesyltransferase inhibitors.
T24/83 cells were inoculated into 384 well plates at 100 cells/well, and grown in the presence of inhibitor, 0.7% DMSO as a negative control, or 100 μM tipifarnib as a positive control, at 37° C. for 4 days. Cell viability was assessed using the CellTiter-Glo Kit (CTG) (Promega; Madison, WI). Luminescence was recorded using EnVision microplate reader (PerkinElmer; Waltham, MA). In this assay, tipifarmib was used as a positive control. All the assay plates passed the QC criteria (S/B, Z-factor).
(In general: ATP-based viability assays read luminescence as a measure of living cells.)

Assay [1] addresses T1, Recombinant human farnesyl transferase (FTase) (Homo sapiens, UniProt P49356).
T1 construct: purchased Crelux (Martinsried, Germany)
Kind of assay: FTase fluorescence assay (farnesylation of dansyl-GCVLS peptide). The class given is biochemical. The conditions noted are these: recombinant human FTase 2.5 nM, Dansyl-GCVLS 85 nM, FPP 30 nM, 30° C., 50 minutes.

`Cn1cncc1C1(O)c2ccc(Cl)c(c2)OCCc2cccc(c2)-c2cc(=O)[nH]c3ccc1cc23` (racemic) [Compound 25, (rac)-4^4-chloro-3-hydroxy-3-(1-methyl-1H-imidazol-5-yl)-2^1,2^2-dihydro-5-oxa-2(4,6)-quinolina-1,4(1,3)-dibenzenacycloheptaphan-2^2-one]: the IC50 – broadly, the concentration that inhibits the measured activity by half – is 50 to 500 nM in the assay on T24/83 cells and no more than 10 nM in assay [1].

As to `Cn1cncc1[C@@]1(N)c2ccc(C#N)c(c2)OCc2cccc(c2)-c2cc(=O)n(C)c3ccc1cc23` [(S)-19, (S)-3-amino-2^1-methyl-3-(1-methyl-1H-imidazol-5-yl)-2^2-oxo-2^1,2^2-dihydro-5-oxa-2(4,6)-quinolina-1,4(1,3)-dibenzenacyclohexaphane-4^4-carbonitrile], the IC50 is no more than 50 nM in the assay with T24/83 cells and no more than 10 nM in assay [1].

As for `Cn1cncc1[C@@]1(N)c2ccc(C#N)c(c2)COc2cccc(c2)-c2cc(=O)n(CC(O)CO)c3ccc1cc23` (stereo partly drawn) [(S)-69, (3S)-3-amino-2^1-(2,3-dihydroxypropyl)-3-(1-methyl-1H-imidazol-5-yl)-2^2-oxo-2^1,2^2-dihydro-6-oxa-2(4,6)-quinolina-1,4(1,3)-dibenzenacyclohexaphane-4^4-carbonitrile], the half-inhibitory concentration (IC50) in the assay on T24/83 cells was greater than 500 nM; in assay [1], no more than 10 nM.

Consider `Cn1cncc1C1(O)c2cccc(c2)CCc2cccc(c2)-c2cc(=O)n(C)c3ccc1cc23` (stereo not drawn) [Compound 2, 3-hydroxy-2^1-methyl-3-(1-methyl-1H-imidazol-5-yl)-2^1,2^2-dihydro-2(4,6)-quinolina-1,4(1,3)-dibenzenacyclohexaphan-2^2-one], for which the 50% inhibitory concentration (IC50) with T24/83 cells lay within 50 to 500 nM; in assay [1] it was 10 to 100 nM.

For `Cn1cncc1C1(O)c2cccc(c2)OCc2cccc(c2)-c2cc(=O)n(C)c3ccc1cc23` (stereo not drawn) [Compound 11, 3-hydroxy-2^1-methyl-3-(1-methyl-1H-imidazol-5-yl)-2^1,2^2-dihydro-5-oxa-2(4,6)-quinolina-1,4(1,3)-dibenzenacyclohexaphan-2^2-one], the IC50 in the assay with T24/83 cells is greater than 500 nM; in assay [1], no more than 10 nM.

As for `Cn1cncc1C1(O)c2ccc(Cl)c(c2)OCc2cccc(c2)-c2cc(=O)[nH]c3ccc1cc23` (stereo not drawn) [Compound 13, 4^4-chloro-3-hydroxy-3-(1-methyl-1H-imidazol-5-yl)-2^1,2^2-dihydro-5-oxa-2(4,6)-quinolina-1,4(1,3)-dibenzenacyclohexaphan-2^2-one], the IC50 is 50 to 500 nM in the assay with T24/83 cells and 10 to 100 nM in assay [1].

Take `Cn1cncc1C1(O)c2cccc(c2)OCCc2cccc(c2)-c2cc(=O)[nH]c3ccc1cc23` (stereo not drawn) [Compound 22, 3-hydroxy-3-(1-methyl-1H-imidazol-5-yl)-2^1,2^2-dihydro-5-oxa-2(4,6)-quinolina-1,4(1,3)-dibenzenacycloheptaphan-2^2-one]: the IC50 in the assay on T24/83 cells fell in the range of 50 to 500 nM; in assay [1], 10 to 100 nM.

`Cn1cncc1C1(O)c2cccc(c2)OCCc2cccc(c2)-c2cc(=O)n(C)c3ccc1cc23` (stereo not drawn) [Compound 23, 3-hydroxy-2^1-methyl-3-(1-methyl-1H-imidazol-5-yl)-2^1,2^2-dihydro-5-oxa-2(4,6)-quinolina-1,4(1,3)-dibenzenacycloheptaphan-2^2-one]: the half-inhibitory concentration (IC50) was no more than 50 nM in the assay on T24/83 cells and no more than 10 nM in assay [1].

For the molecule `COc1cc2c3cc(ccc3n1)C(O)(c1cncn1C)c1ccc(Cl)c(c1)OCCc1cccc-2c1` (stereo not drawn) [Compound 24, 4^4-chloro-2^2-methoxy-3-(1-methyl-1H-imidazol-5-yl)-5-oxa-2(4,6)-quinolina-1,4(1,3)-dibenzenacycloheptaphan-3-ol], the IC50 with T24/83 cells is greater than 500 nM; in assay [1], greater than 100 nM.

With `Cn1cncc1C1(O)c2ccc(Cl)c(c2)OCCc2cccc(c2)-c2cc(=O)n(C)c3ccc1cc23` (stereo not drawn) [Compound 26, 4^4-chloro-3-hydroxy-2^1-methyl-3-(1-methyl-1H-imidazol-5-yl)-2^1,2^2-dihydro-5-oxa-2(4,6)-quinolina-1,4(1,3)-dibenzenacycloheptaphan-2^2-one], the 50% inhibitory concentration (IC50) with T24/83 cells lay in the range of 50 to 500 nM; in assay [1] it was 10 to 100 nM.

For `COc1cc2c3cc(ccc3n1)C(O)(c1cncn1C)c1cccc(c1)COc1cccc-2c1` (stereo not drawn) [Compound 40, 2^2-methoxy-3-(1-methyl-1H-imidazol-5-yl)-6-oxa-2(4,6)-quinolina-1,4(1,3)-dibenzenacyclohexaphan-3-ol], the IC50 with T24/83 cells was 50 to 500 nM; in assay [1] it was greater than 100 nM.

Consider `Cn1cncc1C1(O)c2cccc(c2)COc2cccc(c2)-c2cc(=O)[nH]c3ccc1cc23` (stereo not drawn) [Compound 41, 3-hydroxy-3-(1-methyl-1H-imidazol-5-yl)-2^1,2^2-dihydro-6-oxa-2(4,6)-quinolina-1,4(1,3)-dibenzenacyclohexaphan-2^2-one], for which the IC50 in the assay on T24/83 cells is 50 to 500 nM; in assay [1], 10 to 100 nM.

Consider `Cn1cncc1C1(O)c2cccc(c2)COc2cccc(c2)-c2cc(=O)n(C)c3ccc1cc23` (stereo not drawn) [Compound 42, 3-hydroxy-2^1-methyl-3-(1-methyl-1H-imidazol-5-yl)-2^1,2^2-dihydro-6-oxa-2(4,6)-quinolina-1,4(1,3)-dibenzenacyclohexaphan-2^2-one], for which the IC50 was no more than 50 nM in the assay with T24/83 cells and no more than 10 nM in assay [1].

On to `Cn1cncc1C1(O)c2ccc(Cl)c(c2)COc2cccc(c2)-c2cc(=O)[nH]c3ccc1cc23` (stereo not drawn) [Compound 44, 4^4-chloro-3-hydroxy-3-(1-methyl-1H-imidazol-5-yl)-2^1,2^2-dihydro-6-oxa-2(4,6)-quinolina-1,4(1,3)-dibenzenacyclohexaphan-2^2-one], for which the values for the concentration for half-maximal inhibition (IC50) (in the assay on T24/83 cells; in assay [1]) were 50 to 500 nM and no more than 10 nM, respectively.

For `COc1cc2c3cc(ccc3n1)C(O)(c1cncn1C)c1cnc(C#N)c(c1)COc1cccc-2c1` (stereo not drawn) [Compound 60, 3-hydroxy-2^2-methoxy-3-(1-methyl-1H-imidazol-5-yl)-6-oxa-2(4,6)-quinolina-4(3,5)-pyridina-1(1,3)-benzenacyclohexaphane-4^6-carbonitrile], the half-inhibitory concentration (IC50) is greater than 500 nM in the assay with T24/83 cells and 10 to 100 nM in assay [1].

Turning to `[2H]C([2H])([2H])n1c(=O)cc2c3cc(ccc31)C(O)(c1cncn1C)c1cnc(C#N)c(c1)COc1cccc-2c1` (stereo not drawn) [Compound 61, 3-hydroxy-2^1-(methyl-d3)-3-(1-methyl-1H-imidazol-5-yl)-2^2-oxo-2^1,2^2-dihydro-6-oxa-2(4,6)-quinolina-4(3,5)-pyridina-1(1,3)-benzenacyclohexaphane-4^6-carbonitrile], the IC50 in the assay on T24/83 cells is 50 to 500 nM; in assay [1], no more than 10 nM.

With `[2H]C([2H])([2H])n1c(=O)cc2c3cc(ccc31)C(N)(c1cncn1C)c1cnc(C#N)c(c1)COc1cccc-2c1` (stereo not drawn) [Compound 62, 3-amino-2^1-(methyl-d3)-3-(1-methyl-1H-imidazol-5-yl)-2^2-oxo-2^1,2^2-dihydro-6-oxa-2(4,6)-quinolina-4(3,5)-pyridina-1(1,3)-benzenacyclohexaphane-4^6-carbonitrile], the IC50 was greater than 500 nM in the assay on T24/83 cells and no more than 10 nM in assay [1].

As for `Cn1cncc1C1(O)c2ccc(C#N)c(c2)COc2cccc(c2)-c2cc(C#N)nc3ccc1cc23` (stereo not drawn) [Compound 72, 3-hydroxy-3-(1-methyl-1H-imidazol-5-yl)-6-oxa-2(4,6)-quinolina-1,4(1,3)-dibenzenacyclohexaphane-2^2 4^4-dicarbonitrile], the half-maximal inhibitory concentration (IC50) with T24/83 cells is 50 to 500 nM; in assay [1] it was no more than 10 nM.

Source of the values: patent US12018011B2, “Macrocyclic compounds and compositions, and methods of preparing and using the same” (Kura Oncology, Inc., priority 2021, dated 2024).
